Data on 30 compounds can be found in patent publication US9730940B2, “Purine inhibitors of human phosphatidylinositol 3-kinase delta” (priority 2012, dated 2017).

Some results are limits rather than exact numbers.

The target of this assay is PI3K-alpha (Homo sapiens (Human), UniProt P42336). Briefly: HTRF PI3K biochemical assay, alpha isoform. As to conditions: ratio PI3K-alpha IC50 value/PI3K-delta IC50 value.
Sequence of PI3K-alpha (P42336 whole entry, looked up, canonical isoform): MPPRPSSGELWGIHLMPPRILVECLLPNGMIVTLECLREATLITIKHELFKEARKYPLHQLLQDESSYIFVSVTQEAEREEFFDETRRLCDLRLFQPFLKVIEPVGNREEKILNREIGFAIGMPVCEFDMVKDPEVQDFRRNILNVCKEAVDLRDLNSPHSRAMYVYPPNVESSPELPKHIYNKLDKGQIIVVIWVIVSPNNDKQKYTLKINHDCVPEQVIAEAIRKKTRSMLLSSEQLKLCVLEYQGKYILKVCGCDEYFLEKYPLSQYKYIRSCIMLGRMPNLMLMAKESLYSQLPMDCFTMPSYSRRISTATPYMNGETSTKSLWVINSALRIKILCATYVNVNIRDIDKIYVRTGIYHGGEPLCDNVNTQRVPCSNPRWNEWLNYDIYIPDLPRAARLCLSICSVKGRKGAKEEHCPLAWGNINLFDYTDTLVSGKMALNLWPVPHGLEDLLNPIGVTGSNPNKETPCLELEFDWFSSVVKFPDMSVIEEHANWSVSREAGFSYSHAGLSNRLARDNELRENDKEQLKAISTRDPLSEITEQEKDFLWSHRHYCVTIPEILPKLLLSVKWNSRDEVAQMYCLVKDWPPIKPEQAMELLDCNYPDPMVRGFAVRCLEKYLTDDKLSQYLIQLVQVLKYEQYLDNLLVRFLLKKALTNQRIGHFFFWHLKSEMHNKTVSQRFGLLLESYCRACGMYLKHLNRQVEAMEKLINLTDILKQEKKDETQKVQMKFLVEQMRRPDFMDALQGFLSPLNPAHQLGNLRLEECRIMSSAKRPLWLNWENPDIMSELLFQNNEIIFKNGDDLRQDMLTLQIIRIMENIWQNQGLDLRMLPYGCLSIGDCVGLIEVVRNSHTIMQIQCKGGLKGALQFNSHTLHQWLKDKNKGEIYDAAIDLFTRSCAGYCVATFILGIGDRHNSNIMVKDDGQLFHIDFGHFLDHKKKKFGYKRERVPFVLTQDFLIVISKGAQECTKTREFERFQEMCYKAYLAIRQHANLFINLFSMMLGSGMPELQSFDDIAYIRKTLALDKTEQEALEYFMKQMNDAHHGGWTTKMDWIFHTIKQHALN
Sequence of PI3K-alpha (P27986 whole entry partner, looked up, canonical isoform): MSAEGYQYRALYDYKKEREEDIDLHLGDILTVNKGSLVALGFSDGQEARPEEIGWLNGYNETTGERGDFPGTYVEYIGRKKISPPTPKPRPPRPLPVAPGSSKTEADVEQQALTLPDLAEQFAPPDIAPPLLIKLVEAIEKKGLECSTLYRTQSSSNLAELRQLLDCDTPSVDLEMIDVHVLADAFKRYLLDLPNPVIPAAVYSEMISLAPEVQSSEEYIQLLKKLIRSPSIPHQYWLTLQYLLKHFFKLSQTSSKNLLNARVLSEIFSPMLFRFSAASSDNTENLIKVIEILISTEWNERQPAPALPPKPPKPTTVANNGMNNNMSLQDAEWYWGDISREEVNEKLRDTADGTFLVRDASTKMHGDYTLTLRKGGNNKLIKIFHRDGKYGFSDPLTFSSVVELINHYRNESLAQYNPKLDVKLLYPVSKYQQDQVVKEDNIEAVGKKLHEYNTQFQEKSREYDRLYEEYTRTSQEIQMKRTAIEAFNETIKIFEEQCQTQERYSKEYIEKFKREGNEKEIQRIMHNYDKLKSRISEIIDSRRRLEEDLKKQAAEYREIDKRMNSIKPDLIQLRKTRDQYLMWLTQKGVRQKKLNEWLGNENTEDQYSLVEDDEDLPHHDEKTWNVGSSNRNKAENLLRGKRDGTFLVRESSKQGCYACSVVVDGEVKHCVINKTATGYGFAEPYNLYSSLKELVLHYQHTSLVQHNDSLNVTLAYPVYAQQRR
Consider `CCn1c(-c2cnc(C)c(F)c2)nc2c(O[C@H]3CCN(C(=O)C4CC4)C3)ncnc21` [Compound 3-30, 6-{[(3S)-1-(cyclopropylcarbonyl)pyrrolidin-3-yl]oxy}-9-ethyl-8-(5-fluoro-6-methylpyridin-3-yl)-9H-purine], for which the “Relative Selectivity versus PI3Kalpha” value is on record as over 10. Consider `CCn1c(-c2cnc(C)nc2)nc2c(O[C@H]3CCN(C(=O)N4CCC(C)(O)C4)C3)ncnc21` (stereo partly drawn) [Compound 5-20, 1-{[(3S)-3-{[9-ethyl-8-(2-methylpyrimidin-5-yl)-9H-purin-6-yl]oxy}pyrrolidin-1-yl]carbonyl}-3-methylpyrrolidin-3-ol], for which the “Relative Selectivity versus PI3Kalpha” value was over 10. Regarding `CCn1c(-c2cnn3c2CCCC3)nc2c(O[C@H]3CCN(C(=O)C4CC4)C3)ncnc21` [Compound 3-59, 6-{[(3S)-1-(cyclopropylcarbonyl)pyrrolidin-3-yl]oxy}-9-ethyl-8-(4,5,6,7-tetrahydropyrazolo[1,5-a]pyridin-3-yl)-9H-purine], the “Relative Selectivity versus PI3Kalpha” value is over 10. The value for `CCn1c(-c2cnc(C(F)(F)F)nc2)nc2c(O[C@H]3CCN(C(=O)C4CC4)C3)ncnc21` [Compound 3-43, 6-{[(3S)-1-(cyclopropylcarbonyl)pyrrolidin-3-yl]oxy}-9-ethyl-8-[2-(trifluoromethyl)pyrimidin-5-yl]-9H-purine] was over 10; that for `CCC(=O)N1CC[C@H](Oc2ncnc3c2nc(-c2cnc(C)nc2)n3C)C1` [Compound 3-20, 9-methyl-8-(2-methylpyrimidin-5-yl)-6-{[(3S)-1-propanoylpyrrolidin-3-yl]oxy}-9H-purine] was over 10; that for `CCn1c(-c2cnc(C)nc2)nc2c(O[C@H]3CCN(C(=O)N4CCC(C)(C)C4)C3)ncnc21` [Compound 5-19, 6-({(3S)-1-[(3,3-dimethylpyrrolidin-1-yl)carbonyl]pyrrolidin-3-yl}oxy)-9-ethyl-8-(2-methylpyrimidin-5-yl)-9H-purine] was over 10. Regarding `CCn1ncc(-c2nc3c(O[C@H]4CCN(C(=O)c5cnoc5C)C4)ncnc3n2C)c1C` [Compound 2-65, 8-(1-ethyl-5-methyl-1H-pyrazol-4-yl)-9-methyl-6-({(3S)-1-[(5-methylisoxazol-4-yl)carbonyl]pyrrolidin-3-yl}oxy)-9H-purine], the “Relative Selectivity versus PI3Kalpha” value is over 10. As to `CCn1c(-c2cnc(C)nc2)nc2c(O[C@H]3CCN(C(=O)[C@H]4C[C@H]5CC[C@@H]4C5)C3)ncnc21` [Compound 2-110, 6-({(3S)-1-[(1R,2S,4S)-bicyclo[2.2.1]hept-2-ylcarbonyl]pyrrolidin-3-yl}oxy)-9-ethyl-8-(2-methylpyrimidin-5-yl)-9H-purine], the “Relative Selectivity versus PI3Kalpha” value was over 10. As for `Cc1nn(C)cc1-c1nc2c(O[C@H]3CCN(C(=O)OC(C)(C)C)C3)ncnc2n1C` [Compound 1-16, tert-butyl (3S)-3-{[8-(1,3-dimethyl-1H-pyrazol-4-yl)-9-methyl-9H-purin-6-yl]oxy}pyrrolidine-1-carboxylate], the “Relative Selectivity versus PI3Kalpha” value is reported as over 9. Turning to `CCn1c(-c2ccc(OC(F)(F)F)cc2)nc2c(O[C@H]3CCN(C(=O)C4CC4)C3)ncnc21` [Compound 2-142, 6-{[(3S)-1-(cyclopropylcarbonyl)pyrrolidin-3-yl]oxy}-9-ethyl-8-[4-(trifluoromethoxy)phenyl]-9H-purine], the “Relative Selectivity versus PI3Kalpha” value is over 10. The figure for `CCn1ncc(-c2nc3c(S(=O)(=O)[C@H]4CCN(C(=O)OC(C)(C)C)C4)ncnc3n2C)c1C` [Compound 10-2, (S)-tert-butyl 3-((8-(1-ethyl-5-methyl-1H-pyrazol-4-yl)-9-methyl-9H-purin-6-yl)sulfonyl)pyrrolidine-1-carboxylate] is 8; for `CCn1ncc(-c2nc3c(O[C@H]4CCN(C(=O)c5noc(C(C)(C)O)n5)C4)ncnc3n2C)c1C` [Compound 2-50, 2-(3-{[(3S)-3-{[8-(1-ethyl-5-methyl-1H-pyrazol-4-yl)-9-methyl-9H-purin-6-yl]oxy}pyrrolidin-1-yl]carbonyl}-1,2,4-oxadiazol-5-yl)propan-2-ol] it is 8. As for `CCn1ncc(-c2nc3c(O[C@H]4CCN(C(=O)C5CCOCC5)C4)ncnc3n2C)c1C` [Compound 2-8, (S)-(3-((8-(1-ethyl-5-methyl-1H-pyrazol-4-yl)-9-methyl-9H-purin-6-yl)oxy)pyrrolidin-1-yl)(tetrahydro-2H-pyran-4-yl)methanone], the “Relative Selectivity versus PI3Kalpha” value is recorded as over 10.

In the case of `CCC(=O)N1CC[C@H](Oc2ncnc3c2nc(-c2cnn(CC)c2C)n3CC)C1` [Compound 2-93, (S)-1-(3-((9-ethyl-8-(1-ethyl-5-methyl-1H-pyrazol-4-yl)-9H-purin-6-yl)oxy)pyrrolidin-1-yl)propan-1-one], the “Relative Selectivity versus PI3Kalpha” value is over 10. `CCOC(=O)N1CC[C@H](Sc2ncnc3c2nc(-c2cnn(CC)c2C)n3C)C1` [Compound 10-8, (S)-ethyl 3-((8-(1-ethyl-5-methyl-1H-pyrazol-4-yl)-9-methyl-9H-purin-6-yl)thio)pyrrolidine-1-carboxylate]: the “Relative Selectivity versus PI3Kalpha” value is on record as over 10. As to `CCn1c(-c2cnc(C)nc2)nc2c(O[C@H]3CCN(C(=O)c4ccn(C)n4)C3)ncnc21` [Compound 2-109, 9-ethyl-6-({(3S)-1-[(1-methyl-1H-pyrazol-3-yl)carbonyl]pyrrolidin-3-yl}oxy)-8-(2-methylpyrimidin-5-yl)-9H-purine], the “Relative Selectivity versus PI3Kalpha” value is over 10. Turning to `CCn1ncc(-c2nc3c(O[C@H]4CCN(c5cc(-n6cc(C)cn6)ncn5)C4)ncnc3n2C)c1C` [Compound 7-9, 8-(1-ethyl-5-methyl-1H-pyrazol-4-yl)-9-methyl-6-({(3S)-1-[6-(4-methyl-1H-pyrazol-1-yl)pyrimidin-4-yl]pyrrolidin-3-yl}oxy)-9H-purine], the “Relative Selectivity versus PI3Kalpha” value is recorded as over 10. The figure for `CCn1c(-c2cnc(OC)c(F)c2)nc2c(O[C@H]3CCN(C(=O)C4CCOCC4)C3)ncnc21` [Compound 3-56, 9-ethyl-8-(5-fluoro-6-methoxypyridin-3-yl)-6-{[(3S)-1-(tetrahydro-2H-pyran-4-ylcarbonyl)pyrrolidin-3-yl]oxy}-9H-purine] is over 10. Consider `CCn1ncc(-c2nc3c(OC4CN(C(=O)OC(C)(C)C)C4)ncnc3n2C)c1C` [Compound 1-40, tert-butyl 3-((8-(1-ethyl-5-methyl-1H-pyrazol-4-yl)-9-methyl-9H-purin-6-yl)oxy)azetidine-1-carboxylate], for which the “Relative Selectivity versus PI3Kalpha” value is over 10. The figure for `CCOC(=O)[C@H](C)NC(=O)N1CC[C@H](Oc2ncnc3c2nc(-c2cnn(CC)c2C)n3C)C1` [Compound 5-6, ethyl N-{[(3S)-3-{[8-(1-ethyl-5-methyl-1H-pyrazol-4-yl)-9-methyl-9H-purin-6-yl]oxy}pyrrolidin-1-yl]carbonyl}alaninate] is 5; for `CCn1c(-c2cnc(C)nc2)nc2c(O[C@H]3CCN(C(=O)C4CC4CF)C3)ncnc21` (single isomer, unassigned) [Compound 2-133, 9-ethyl-6-{[(3S)-1-{[(1S,2S)- or (1R,2R)-2-(fluoromethyl)cyclopropyl]carbonyl}pyrrolidin-3-yl]oxy}-8-(2-methylpyrimidin-5-yl)-9H-purine] it is over 10; for `CCC(=O)N1CC[C@H](Oc2ncnc3c2nc(-c2cnc(OC)c(F)c2)n3C)C1` [Compound 3-34, 8-(5-fluoro-6-methoxypyridin-3-yl)-9-methyl-6-{[(3S)-1-propanoylpyrrolidin-3-yl]oxy}-9H-purine] it is over 10. The figure for `CCn1c(-c2cnc(C)nc2)nc2c(O[C@H]3CCN(C(=O)C4CCOCC4)C3)ncnc21` [Compound 2-26, 9-ethyl-8-(2-methylpyrimidin-5-yl)-6-{[(3S)-1-(tetrahydro-2H-pyran-4-ylcarbonyl)pyrrolidin-3-yl]oxy}-9H-purine] is over 10; for `CCn1ncc(-c2nc3c(O[C@H]4CCN(C(=O)c5nnsc5C)C4)ncnc3n2C)c1C` [Compound 2-46, 8-(1-ethyl-5-methyl-1H-pyrazol-4-yl)-9-methyl-6-({(3S)-1-[(5-methyl-1,2,3-thiadiazol-4-yl)carbonyl]pyrrolidin-3-yl}oxy)-9H-purine] it is over 10; for `CCC(=O)N1CC[C@H](Oc2ncnc3c2nc(-c2ccc(S(C)(=O)=O)cc2)n3C)C1` [Compound 3-39, 9-methyl-8-[4-(methyslulfonyl)phenyl]-6-{[(3S)-1-propanoylpyrrolidin-3-yl]oxy}-9H-purine] it is over 10.

Consider `CCn1ncc(-c2nc3c(OC4CCN(C(=O)c5ccc6ccccc6c5)C4)ncnc3n2C)c1C` (stereo not drawn) [Compound 2-3, 8-(1-ethyl-5-methyl-1H-pyrazol-4-yl)-9-methyl-6-{[1-(naphthalen-2-ylcarbonyl)pyrrolidin-3-yl]oxy}-9H-purine], for which the “Relative Selectivity versus PI3Kalpha” value is reported as over 10.

For the compound `CCn1ncc(-c2nc3c(O[C@H]4CCN(C(=O)C5CC(=O)N(C)C5)C4)ncnc3n2C)c1C` (stereo partly drawn) [Compound 2-62, 4-{[(3S)-3-{[8-(1-ethyl-5-methyl-1H-pyrazol-4-yl)-9-methyl-9H-purin-6-yl]oxy}pyrrolidin-1-yl]carbonyl}-1-methylpyrrolidin-2-one], the “Relative Selectivity versus PI3Kalpha” value is over 10. `CCC(=O)N1CC[C@H](Oc2ncnc3c2nc(-c2ccc4cn[nH]c4c2)n3C)C1` [Compound 3-1, (S)-1-(3-((8-(1H-indazol-6-yl)-9-methyl-9H-purin-6-yl)oxy)pyrrolidin-1-yl)propan-1-one]: the “Relative Selectivity versus PI3Kalpha” value is on record as over 10. The figure for `CCn1c(-c2cnc(C)nc2)nc2c(O[C@H]3C[C@H](NC(=O)OC(C)(C)C)C3)ncnc21` [Compound 9-6, tert-butyl (trans-3-{[9-ethyl-8-(2-methylpyrimidin-5-yl)-9H-purin-6-yl]oxy}cyclobutyl)carbamate] is over 10; for `CCOC(=O)N1CC[C@H](Oc2ncnc3c2nc(-c2cnn(CC)c2C)n3C)C1` [Compound 1-37, ethyl (3S)-3-{[8-(1-ethyl-5-methyl-1H-pyrazol-4-yl)-9-methyl-9H-purin-6-yl]oxy}pyrrolidine-1-carboxylate] it is over 10.
